Data reported in PMC7285070, “Quercetin Is a Flavonoid Breast Cancer Resistance Protein Inhibitor with an Impact on the Oral Pharmacokinetics of Sulfasalazine in Rats” (Pharmaceutics, 2020).
Where “and” joins values, the source holds several entries; their conditions need not be identical. Identical values can stand only once. Like-named read-outs stand apart in the source and are kept apart here.

Tests used:
[1] = set-up: method as in PMID 15608138; details: rats or P-gp-knockout mice; cited from earlier work
mouse BCRP = test system: mouse BCRP; set-up: method as in PMID 15608138; details: cited from earlier work
human BCRP [2] = target: T1, human BCRP (Homo sapiens, UniProt Q9UNQ0); set-up: expressed in transfected cells; host or cells: MDCKII (Madin-Darby canine kidney II) cells; method as in PMID 15608138; details: cited from earlier work
T1 sequence (Q9UNQ0 1-655): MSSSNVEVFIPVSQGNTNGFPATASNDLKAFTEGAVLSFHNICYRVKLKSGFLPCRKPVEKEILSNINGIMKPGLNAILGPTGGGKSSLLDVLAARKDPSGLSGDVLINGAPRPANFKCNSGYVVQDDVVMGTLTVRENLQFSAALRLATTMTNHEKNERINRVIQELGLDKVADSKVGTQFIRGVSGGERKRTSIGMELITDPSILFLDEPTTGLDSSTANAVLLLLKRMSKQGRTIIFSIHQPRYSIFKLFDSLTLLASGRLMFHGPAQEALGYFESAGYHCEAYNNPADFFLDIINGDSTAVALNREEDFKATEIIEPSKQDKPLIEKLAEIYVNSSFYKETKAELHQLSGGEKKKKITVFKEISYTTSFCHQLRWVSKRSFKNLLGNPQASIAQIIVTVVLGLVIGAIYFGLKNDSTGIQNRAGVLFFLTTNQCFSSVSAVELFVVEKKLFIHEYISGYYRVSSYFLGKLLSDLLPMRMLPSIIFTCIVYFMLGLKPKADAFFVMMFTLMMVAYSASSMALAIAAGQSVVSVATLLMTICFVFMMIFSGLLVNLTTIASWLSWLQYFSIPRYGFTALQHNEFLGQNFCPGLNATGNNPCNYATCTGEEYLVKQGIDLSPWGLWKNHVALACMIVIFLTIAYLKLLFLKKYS

HeLa cells [3] = assay: FACS cellular accumulation of mitoxantrone (flow cytometry); format: cell-based, human; details: for percentage of cells with a significant uptake of MX, higher than at 2 h of treatment with MX alone: 1 μM MX alone
Procedure: The cellular accumulation of quercetin was measured by FACSCalibur flow cytometry (Becton Dickinson, San Jose, CA, USA). For FACScan analysis, 2 × 10^5 HeLa cells/well were seeded into 6-well cell culture plates on the day before the experiment. On the following day, cells were treated with vehicle or quercetin and 1 μM MX. A time course experiment was conducted on HeLa cells following treatment with quercetin (1 and 100 μM) for 2, 4, and 6 h. After treatment, the cells were harvested by trypsinization and transferred to a fluorescence-activated cell sorting (FACS) tube, pelleted by centrifugation (1500 rpm, 5 min), and then resuspended in 200 μL of PBS. Flow cytometry analysis was performed using red fluorescence. A minimum of 10,000 cells were acquired per sample.

HeLa cells [4] = assay: Cytotoxicity assay (CCK-8) of mitoxantrone with or without BCRP inhibitor; format: cell-based, human; details: for IC50: 24 h, CCK-8
Procedure: Dojindo Molecular Technologies, Kumamoto, Japan) following the manufacturer’s instructions. HeLa cells (at a density of 1 × 10^4 cells per well) were seeded and cultured overnight in 96-well plates. […] The absorbance was measured at a wavelength of 450 nm using a microplate reader (BioTeK, Highland Park, WI, USA).

human BCRP [5] = target: T1, human BCRP; details: read-out: Km value for prazosin; BCRP-mediated transport; cited from earlier work
BCRP [6] = test system: BCRP; set-up: method as in PMID 21354800; details: MCF-7/MX cells; read-out: IC50, Hoechst 33342 accumulation; cited from earlier work
human BCRP [7] = target: T1, human BCRP; assay: Bi-directional transport of prazosin in MDCKII/BCRP cells; format: cell-based; set-up: expressed in transfected cells; host or cells: MDCKII (Madin-Darby canine kidney II) cells
Procedure: At the end of the incubation, aliquots (300 μL for the apical chamber and 500 μL for the basolateral chamber) of the incubation mixture were collected from the donor and receiver chambers and subjected to LC-MS/MS assays. […] Briefly, an aliquot (50 μL) of a sample was vortex-mixed with an acetonitrile solution containing glipizide (300 ng/mL, internal standard); this was followed by centrifugation (16,100 × g for 5 min at 4 °C). An aliquot (5 μL) of the supernatant was directly injected into the LC-MS/MS system. […] For the internal standard glipizide, the transition m/z 445.[…]/z 320.9 was used. […] The efflux ratio (ER) was calculated by dividing the B-to-A apparent permeability coefficient (Papp, B-to-A) by the A-to-B apparent permeability coefficient (Papp, A-to-B). In the inhibition studies, the percentage of the control efflux ratio (%ER) was also calculated by dividing the value for ER in the presence of the inhibitor by that in the absence of the inhibitor (i.e., in the control).

[8] = set-up: method as in PMID 15948033; details: 10 mg/kg oral administration to rats; cited from earlier work
BCRP [9] = test system: BCRP; set-up: method as in PMID 21354800; details: MDCKII/BCRP cells; read-out: IC50, Hoechst 33342 accumulation; cited from earlier work
[10] = set-up: method as in PMID 22711747; details: BCRP-knockout rats, oral; cited from earlier work
in vivo = assay: in vivo; set-up: species or system rats; details: rat
Procedure: To determine whether quercetin affects the intestinal efflux mediated by BCRP, we divided the male rats into two groups: A sulfasalazine (a substrate of BCRP) control group and a quercetin pretreatment plus sulfasalazine group (n = 4, each). Considering the similar expression levels of intestinal BCRP between male and female rats, male rats were used in this study. Briefly, overnight fasted male SD rats were anesthetized by intramuscular administration of 50 mg/kg tiletamine HCl/zolazepam HCl (Zoletil®) (Vibrac, TX, USA) and 10 mg/kg xylazine HCl (Rompun®, Bayer, Puteaux, France). While the rats were anesthetized, the femoral artery (for blood sampling) and vein (for supplementing body fluids) were catheterized using polyethylene tubing (PE 50; Clay Adams, Parsippany, NJ, USA). Upon recovery from anesthesia (i.e., after 4 h), quercetin was administered by oral gavage at 10 mg/kg (or 0 mg/kg in the case of the sulfasalazine control group; DMSO/polyethylene glycol 400/saline [1:4:5 (v/v/v)]). The pretreatment dose of quercetin was determined based on the compound solubility in the dosing vehicle and the likely daily dose of human dietary supplement. […] Immediately after each blood collection, an identical volume of saline was intravenously provided to the animal to compensate for fluid loss. To prevent blood clotting during blood collection, the cannula was filled with 25 IU/mL heparinized saline. The plasma fraction was separated from the blood samples by centrifugation (16,100 × g for 5 min at 4 °C) and stored at -80 °C until the LC-MS/MS assay. […] Briefly, an aliquot (50 μL) of a sample was vortex-mixed with an acetonitrile solution containing glipizide (300 ng/mL, internal standard); this was followed by centrifugation (16,100 × g for 5 min at 4 °C). An aliquot (5 μL) of the supernatant was directly injected into the LC-MS/MS system. […] For the internal standard glipizide, the transition m/z 445.[…]/z 320.9 was used. […] Standard non-compartmental pharmacokinetic analysis was carried out using WinNonlin Professional 5.0.1 software (Pharsight, Cary, NC, USA) to calculate the pharmacokinetic parameters, including the peak concentration (Cmax), time of the peak concentration (tmax), elimination half-life (t1/2), area under the plasma concentration-time curve from time zero to the last sampling point, 8 h (AUC8h), and elimination clearance (CL/F).

O=c1cc(-c2ccccc2)oc2c1ccc1ccccc12 [7,8-benzoflavone]
effect of coadministered flavonoid on the pharmacokinetics of topotecan [1]: no significant effects | inhibition of mouse BCRP (mouse BCRP): weak inhibitors | inhibition of human BCRP (human BCRP [2]): potent inhibitors

COc1ccc2c3c([nH]c2c1)[C@H](CC(C)C)N1C(=O)[C@H](CCC(=O)OC(C)(C)C)NC(=O)[C@@H]1C3 [Ko143]
internalization of MX when co-administered with inhibitor (HeLa cells [3]; 1 μM Ko143 with MX): considerably high number of cells that internalized MX

O=c1cc(-c2ccccc2)oc2cc(O)cc(O)c12 [chrysin]
effect of coadministered flavonoid on the pharmacokinetics of topotecan [1]: no significant effects | inhibition of mouse BCRP (mouse BCRP): weak inhibitors | inhibition of human BCRP (human BCRP [2]): potent inhibitors

O=C1c2c(O)ccc(O)c2C(=O)c2c(NCCNCCO)ccc(NCCNCCO)c21 [mitoxantrone]
IC50 (HeLa cells [4]; Homo sapiens, in the presence of Ko143 (1 μM)): 0.62 µM | IC50 (HeLa cells [4]; Homo sapiens, HeLa, mitoxantrone alone): 5.83 µM | IC50 (HeLa cells [4]; Homo sapiens, HeLa, with 1 μM quercetin): 1.13 µM | IC50 (HeLa cells [4]; Homo sapiens, HeLa, with 100 μM quercetin): 0.478 µM | IC50 of mitoxantrone as percentage of the control value (mitoxantrone alone) (HeLa cells [4]; with 1 μM quercetin): 19.3% | IC50 of mitoxantrone as percentage of the control value (mitoxantrone alone) (HeLa cells [4]; with 100 μM quercetin): 8.2% and 8.23% | IC50 (HeLa cells [4]; with 100 μM quercetin): 0.48 µM | percentage of cells with a significant uptake of MX, higher than at 2 h of treatment with MX alone (HeLa cells [3]; 4 h): 17.2% | percentage of cells with a significant uptake of MX, higher than at 2 h of treatment with MX alone (HeLa cells [3]; 6 h): 27.1% | cellular uptake of MX, higher than at 2 h of treatment with MX alone (HeLa cells [3]; 1 μM MX with 1 μM quercetin, 4 h): 30.2% | cellular uptake of MX, higher than at 2 h of treatment with MX alone (HeLa cells [3]; 1 μM MX with 1 μM quercetin, 6 h): 35.9% | cellular uptake of MX, higher than at 2 h of treatment with MX alone (HeLa cells [3]; 1 μM MX with 100 μM quercetin, 4 h): 45.3% | cellular uptake of MX, higher than at 2 h of treatment with MX alone (HeLa cells [3]; 1 μM MX with 100 μM quercetin, 6 h): 67.4%

COc1cc2nc(N3CCN(C(=O)c4ccco4)CC3)nc(N)c2cc1OC [prazosin, Prazosin]
Km (human BCRP [5]): 128 µM

O=c1c(O)c(-c2ccc(O)c(O)c2)oc2cc(O)cc(O)c12 [quercetin, Quercetin]
IC50 (BCRP [6]): 7.6 µM | IC50 (human BCRP [7]): 4.22 µM | Ki (human BCRP [7]): 3.91 µM | Cmax [8]: 210 ng/mL | oral bioavailability [8]: 5.3% | IC50 (BCRP [9]): 6.9 µM

O=C(O)c1cc(/N=N/c2ccc(S(=O)(=O)Nc3ccccn3)cc2)ccc1O [sulfasalazine]
increase in absorption (AUC8h, Cmax) of sulfasalazine in knockout rats [10]: approximately 20 fold | AUC8h (in vivo; male, SD, po, 2 mg/kg): 44500 ± 11800 ng·min/mL | CL/F (in vivo; male, SD, po, 2 mg/kg): 33.2 ± 10.2 mL/min/kg | Cmax (in vivo; male, SD, po, 2 mg/kg): 179 ± 23.0 ng/mL | t1/2 (in vivo; male, SD, po, 2 mg/kg): 4.03 ± 1.34 h | tmax (in vivo; male, SD, po, 2 mg/kg): 0.375 ± 0.145 h | AUC(0-t) (in vivo; male, SD, po, 2 mg/kg, AUC8h): 428 ng·h/mL | CL/F (in vivo; male, SD, po, 2 mg/kg, CL/F): 52.5 ± 33.5 mL/min/kg | Cmax (in vivo; male, SD, po, 2 mg/kg, Cmax): 122 ± 23.2 ng/mL | half-life (in vivo; male, SD, po, 2 mg/kg, t1/2): 6.38 ± 1.85 h | tmax (in vivo; male, SD, po, 2 mg/kg, tmax): 0.5 h | change in the elimination half-life (t1/2) of sulfasalazine, quercetin pretreatment vs control (in vivo): no significant change
